{"source": "paper doi:10.1101/2020.07.01.182642v1", "about": "(biorxiv, 2020)", "key": {"IGF1R": {"target": "IGF1R (Homo sapiens, UniProt P08069)", "conditions": "binder"}, "MYO3A": {"target": "MYO3A (Homo sapiens, UniProt Q8NEV4)", "conditions": "binder"}, "SgK223": {"target": "SgK223 (Homo sapiens, UniProt Q86YV5)", "conditions": "binder"}, "ADRBK2": {"target": "ADRBK2 (Homo sapiens, UniProt P35626)", "conditions": "binder"}, "CAMKK1": {"target": "CAMKK1 (Homo sapiens, UniProt Q8N5S9)", "conditions": "binder"}, "DDR1": {"target": "DDR1 (Homo sapiens, UniProt Q08345)", "sequence (Q08345 whole entry)": "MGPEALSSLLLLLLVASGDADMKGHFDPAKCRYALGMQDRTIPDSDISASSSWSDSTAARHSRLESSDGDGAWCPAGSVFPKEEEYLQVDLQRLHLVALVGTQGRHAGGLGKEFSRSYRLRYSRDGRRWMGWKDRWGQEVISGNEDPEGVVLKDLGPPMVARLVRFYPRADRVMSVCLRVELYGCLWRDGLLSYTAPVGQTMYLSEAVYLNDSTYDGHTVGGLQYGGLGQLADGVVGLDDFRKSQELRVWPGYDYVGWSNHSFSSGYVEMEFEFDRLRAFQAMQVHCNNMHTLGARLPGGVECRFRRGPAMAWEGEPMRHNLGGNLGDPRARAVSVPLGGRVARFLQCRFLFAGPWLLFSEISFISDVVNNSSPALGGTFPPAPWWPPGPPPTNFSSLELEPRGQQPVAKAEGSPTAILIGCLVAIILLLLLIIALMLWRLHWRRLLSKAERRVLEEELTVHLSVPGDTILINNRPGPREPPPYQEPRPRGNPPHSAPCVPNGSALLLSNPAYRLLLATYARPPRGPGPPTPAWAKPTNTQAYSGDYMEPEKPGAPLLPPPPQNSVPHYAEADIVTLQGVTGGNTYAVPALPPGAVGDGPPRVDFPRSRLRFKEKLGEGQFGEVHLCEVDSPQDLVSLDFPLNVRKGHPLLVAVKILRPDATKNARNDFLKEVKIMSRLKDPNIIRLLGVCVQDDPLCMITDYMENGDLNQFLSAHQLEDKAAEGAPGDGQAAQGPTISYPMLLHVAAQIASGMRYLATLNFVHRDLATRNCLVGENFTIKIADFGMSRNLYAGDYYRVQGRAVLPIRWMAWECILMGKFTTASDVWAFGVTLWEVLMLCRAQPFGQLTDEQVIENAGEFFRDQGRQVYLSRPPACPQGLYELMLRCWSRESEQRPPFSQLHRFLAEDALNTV", "conditions": "binder"}, "NEK11": {"target": "NEK11 (Homo sapiens, UniProt Q8NG66)", "sequence (Q8NG66 whole entry)": "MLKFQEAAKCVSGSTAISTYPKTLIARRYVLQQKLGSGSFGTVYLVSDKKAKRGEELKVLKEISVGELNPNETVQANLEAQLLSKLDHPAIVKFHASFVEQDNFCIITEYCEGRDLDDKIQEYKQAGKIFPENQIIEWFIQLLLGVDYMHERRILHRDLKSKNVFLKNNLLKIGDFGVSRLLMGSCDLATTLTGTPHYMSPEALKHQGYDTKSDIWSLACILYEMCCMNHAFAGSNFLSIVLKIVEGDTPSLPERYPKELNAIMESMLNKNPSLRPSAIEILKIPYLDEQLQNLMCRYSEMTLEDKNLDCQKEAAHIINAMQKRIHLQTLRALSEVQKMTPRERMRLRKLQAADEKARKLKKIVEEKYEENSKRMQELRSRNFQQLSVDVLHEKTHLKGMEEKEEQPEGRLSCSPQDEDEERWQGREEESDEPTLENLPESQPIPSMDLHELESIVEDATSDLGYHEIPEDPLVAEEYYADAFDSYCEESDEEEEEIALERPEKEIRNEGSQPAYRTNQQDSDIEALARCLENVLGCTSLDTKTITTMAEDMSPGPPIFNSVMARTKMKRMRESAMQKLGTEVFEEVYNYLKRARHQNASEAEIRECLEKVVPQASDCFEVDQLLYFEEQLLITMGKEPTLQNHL", "conditions": "binder"}, "NEK6": {"target": "NEK6 (Homo sapiens, UniProt Q9HC98)", "conditions": "binder"}, "PRKACA": {"target": "PRKACA (Homo sapiens, UniProt P17612)", "conditions": "binder"}, "PRKCZ": {"target": "PRKCZ (Homo sapiens, UniProt Q05513)", "conditions": "binder"}, "PRKD2": {"target": "PRKD2 (Homo sapiens, UniProt Q9BZL6)", "conditions": "binder"}, "SIK1": {"target": "SIK1 (Homo sapiens, UniProt P57059)", "sequence (P57059 whole entry)": "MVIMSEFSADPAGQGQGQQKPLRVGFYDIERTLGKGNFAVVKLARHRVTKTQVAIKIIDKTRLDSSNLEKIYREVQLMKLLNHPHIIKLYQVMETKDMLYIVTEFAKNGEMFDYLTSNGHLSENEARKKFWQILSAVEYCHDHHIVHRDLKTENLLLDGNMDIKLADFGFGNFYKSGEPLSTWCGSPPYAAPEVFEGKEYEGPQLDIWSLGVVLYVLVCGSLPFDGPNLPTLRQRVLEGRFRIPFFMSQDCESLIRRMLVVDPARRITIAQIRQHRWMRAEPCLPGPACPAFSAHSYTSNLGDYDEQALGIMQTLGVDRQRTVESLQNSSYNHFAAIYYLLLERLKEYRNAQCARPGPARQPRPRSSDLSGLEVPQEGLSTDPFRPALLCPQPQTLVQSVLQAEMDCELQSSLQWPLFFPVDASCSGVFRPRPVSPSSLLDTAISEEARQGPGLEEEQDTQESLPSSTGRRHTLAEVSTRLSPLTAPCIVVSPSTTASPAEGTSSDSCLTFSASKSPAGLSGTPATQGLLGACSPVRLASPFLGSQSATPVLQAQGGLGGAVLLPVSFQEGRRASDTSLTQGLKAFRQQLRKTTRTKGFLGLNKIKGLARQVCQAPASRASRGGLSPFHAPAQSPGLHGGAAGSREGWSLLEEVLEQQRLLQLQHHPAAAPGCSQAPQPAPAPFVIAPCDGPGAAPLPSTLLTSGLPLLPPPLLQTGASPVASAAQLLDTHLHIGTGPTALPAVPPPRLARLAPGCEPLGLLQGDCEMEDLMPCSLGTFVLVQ", "conditions": "binder"}, "STK32B": {"target": "STK32B (Homo sapiens, UniProt Q9NY57)", "conditions": "binder"}, "STK32C": {"target": "STK32C (Homo sapiens, UniProt Q86UX6)", "sequence (Q86UX6 whole entry)": "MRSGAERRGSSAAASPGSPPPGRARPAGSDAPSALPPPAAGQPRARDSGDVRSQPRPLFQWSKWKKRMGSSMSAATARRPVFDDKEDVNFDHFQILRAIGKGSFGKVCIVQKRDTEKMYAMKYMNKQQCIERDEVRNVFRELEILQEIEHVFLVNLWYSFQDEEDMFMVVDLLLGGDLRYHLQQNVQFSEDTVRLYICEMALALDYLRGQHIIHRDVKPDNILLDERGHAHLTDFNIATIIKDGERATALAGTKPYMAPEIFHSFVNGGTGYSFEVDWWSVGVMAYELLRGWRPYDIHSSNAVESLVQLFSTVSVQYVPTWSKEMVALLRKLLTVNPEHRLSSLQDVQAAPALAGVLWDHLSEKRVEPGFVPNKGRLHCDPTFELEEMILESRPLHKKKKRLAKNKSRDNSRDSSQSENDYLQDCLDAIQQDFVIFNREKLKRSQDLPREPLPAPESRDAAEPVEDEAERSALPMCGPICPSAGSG", "conditions": "binder"}, "STK40": {"target": "STK40 (Homo sapiens, UniProt Q8N2I9)", "sequence (Q8N2I9 whole entry)": "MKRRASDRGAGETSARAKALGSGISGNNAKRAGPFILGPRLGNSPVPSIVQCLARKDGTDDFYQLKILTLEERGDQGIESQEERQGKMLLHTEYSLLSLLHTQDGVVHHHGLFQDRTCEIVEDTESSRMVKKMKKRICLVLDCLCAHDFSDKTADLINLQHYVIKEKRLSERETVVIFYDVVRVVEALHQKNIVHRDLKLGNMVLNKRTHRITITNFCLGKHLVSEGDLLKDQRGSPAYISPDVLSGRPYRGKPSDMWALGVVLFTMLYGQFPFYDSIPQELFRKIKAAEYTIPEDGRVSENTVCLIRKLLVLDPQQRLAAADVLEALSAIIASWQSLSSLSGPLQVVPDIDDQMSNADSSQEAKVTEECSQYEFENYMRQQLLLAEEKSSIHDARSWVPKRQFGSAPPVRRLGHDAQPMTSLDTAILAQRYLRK", "conditions": "binder"}, "TYK2": {"target": "TYK2 (Homo sapiens, UniProt P29597)", "sequence (P29597 whole entry)": "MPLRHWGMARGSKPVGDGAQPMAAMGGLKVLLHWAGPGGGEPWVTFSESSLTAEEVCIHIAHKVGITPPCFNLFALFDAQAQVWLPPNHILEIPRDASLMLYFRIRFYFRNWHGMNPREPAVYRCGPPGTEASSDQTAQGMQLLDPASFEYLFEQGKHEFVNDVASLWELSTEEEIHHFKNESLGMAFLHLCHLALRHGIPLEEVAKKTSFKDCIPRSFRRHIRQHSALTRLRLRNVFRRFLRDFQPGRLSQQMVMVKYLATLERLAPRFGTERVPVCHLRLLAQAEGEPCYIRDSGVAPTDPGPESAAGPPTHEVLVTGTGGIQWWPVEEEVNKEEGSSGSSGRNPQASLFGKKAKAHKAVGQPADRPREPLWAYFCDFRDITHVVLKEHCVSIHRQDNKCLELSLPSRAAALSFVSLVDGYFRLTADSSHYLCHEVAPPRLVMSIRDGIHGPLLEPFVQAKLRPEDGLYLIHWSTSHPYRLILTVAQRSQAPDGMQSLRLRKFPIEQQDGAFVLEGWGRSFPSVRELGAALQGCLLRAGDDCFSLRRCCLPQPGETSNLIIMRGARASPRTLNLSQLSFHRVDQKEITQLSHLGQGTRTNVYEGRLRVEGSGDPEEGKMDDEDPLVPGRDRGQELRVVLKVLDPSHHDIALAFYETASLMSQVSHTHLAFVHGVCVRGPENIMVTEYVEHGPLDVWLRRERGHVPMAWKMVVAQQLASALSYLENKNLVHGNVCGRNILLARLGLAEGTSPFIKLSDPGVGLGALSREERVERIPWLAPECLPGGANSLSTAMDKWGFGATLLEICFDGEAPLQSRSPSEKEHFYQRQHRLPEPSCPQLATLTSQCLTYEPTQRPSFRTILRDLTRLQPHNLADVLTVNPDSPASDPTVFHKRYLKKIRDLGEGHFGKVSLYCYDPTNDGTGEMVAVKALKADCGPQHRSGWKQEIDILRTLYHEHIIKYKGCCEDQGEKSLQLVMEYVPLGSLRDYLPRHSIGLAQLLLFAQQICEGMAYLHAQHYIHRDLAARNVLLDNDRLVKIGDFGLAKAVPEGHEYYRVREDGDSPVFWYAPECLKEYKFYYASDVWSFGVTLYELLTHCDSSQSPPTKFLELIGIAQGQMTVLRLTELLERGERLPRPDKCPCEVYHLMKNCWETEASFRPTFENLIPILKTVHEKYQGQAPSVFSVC", "conditions": "binder"}, "BMPR2": {"target": "BMPR2 (Homo sapiens, UniProt Q13873)", "conditions": "binder"}, "RIPK2": {"target": "RIPK2 (Homo sapiens, UniProt O43353)", "conditions": "binder"}, "CLK1 (full-length)": {"target": "CLK1 (full-length) (Homo sapiens, UniProt P49759, V324A)", "sequence (P49759 whole entry V324A)": "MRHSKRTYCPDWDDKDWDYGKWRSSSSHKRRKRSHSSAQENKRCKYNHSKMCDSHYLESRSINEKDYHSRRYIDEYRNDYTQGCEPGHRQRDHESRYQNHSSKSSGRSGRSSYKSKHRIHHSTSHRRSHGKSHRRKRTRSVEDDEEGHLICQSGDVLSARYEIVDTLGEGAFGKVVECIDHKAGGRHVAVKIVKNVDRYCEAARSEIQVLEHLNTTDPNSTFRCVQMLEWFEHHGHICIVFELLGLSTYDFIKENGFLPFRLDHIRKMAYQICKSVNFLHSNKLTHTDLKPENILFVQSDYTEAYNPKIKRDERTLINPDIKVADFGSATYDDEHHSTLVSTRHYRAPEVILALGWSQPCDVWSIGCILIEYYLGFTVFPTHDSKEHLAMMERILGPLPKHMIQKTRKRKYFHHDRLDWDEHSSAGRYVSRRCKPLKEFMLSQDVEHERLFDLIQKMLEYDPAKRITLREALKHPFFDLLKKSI", "assay": "cell-based", "parameters": "species or system HEK293T"}}}
{"smiles": "Nc1nccc(-c2ccc3noc(-c4ccc(Cl)cc4)c3c2)n1", "note": "[compound 4, K00972]", "values": [{"measurement": "ΔTm inhibitor 4", "setting": "IGF1R", "value": 0.2, "unit": "°C"}, {"measurement": "ΔTm inhibitor 4", "setting": "MYO3A", "value": 0.2, "unit": "°C"}, {"measurement": "ΔTm inhibitor 4", "setting": "SgK223", "value": 0.4, "unit": "°C"}]}
{"smiles": "CCN1/C(=C/C(C)=O)Sc2ccc(OC)cc21", "note": "[compound 2, TG003]", "values": [{"measurement": "ΔTm inhibitor 2", "setting": "ADRBK2", "value": -0.2, "unit": "°C"}, {"measurement": "ΔTm inhibitor 2", "setting": "CAMKK1", "value": 0.0, "unit": "°C"}, {"measurement": "ΔTm inhibitor 2", "setting": "DDR1", "value": 0.4, "unit": "°C"}, {"measurement": "ΔTm inhibitor 2", "setting": "NEK11", "value": 0.6, "unit": "°C"}, {"measurement": "ΔTm inhibitor 2", "setting": "NEK6", "value": -1.0, "unit": "°C"}, {"measurement": "ΔTm inhibitor 2", "setting": "PRKACA", "value": -0.2, "unit": "°C"}, {"measurement": "ΔTm inhibitor 2", "setting": "PRKCZ", "value": -0.2, "unit": "°C"}, {"measurement": "ΔTm inhibitor 2", "setting": "PRKD2", "value": 0.7, "unit": "°C"}, {"measurement": "ΔTm inhibitor 2", "setting": "SIK1", "value": 1.5, "unit": "°C"}, {"measurement": "ΔTm inhibitor 2", "setting": "STK32B", "value": -0.2, "unit": "°C"}, {"measurement": "ΔTm inhibitor 2", "setting": "STK32C", "value": -0.9, "unit": "°C"}, {"measurement": "ΔTm inhibitor 2", "setting": "STK40", "value": 0.0, "unit": "°C"}, {"measurement": "ΔTm inhibitor 2", "setting": "TYK2", "value": 0.6, "unit": "°C"}]}
{"smiles": "CC(=O)c1cccc(-c2cnc3ccc(NCC4CC4)nn23)c1", "note": "[compound 1, K00135]", "values": [{"measurement": "ΔTm inhibitor 1", "setting": "BMPR2", "value": 7.8, "unit": "°C"}, {"measurement": "ΔTm inhibitor 1", "setting": "RIPK2", "value": 6.0, "unit": "°C"}, {"measurement": "Ki", "setting": "CLK1 (full-length)", "value": "512 ± 100", "unit": "nM"}]}
